61 molecules from a melting point compilation (Tetko et al.; mined from patent text by program, amines drawn as free bases though some values may be those of a salt) can be followed below.

As for `FC(F)c1cn(-c2c(Cl)cc(C(F)(F)F)cc2Cl)nc1C(F)(F)F`, the melting point (commonly the temperature, or range, at which the solid turns liquid) lay within 88 to 90 °C.
`CCCCNC(=O)C(Cc1ccccc1)NC(=O)c1cc2cc(Cl)ccc2[nH]1` (stereo unspecified) gave a melting point of 192 to 193 °C.
On to `O=c1ccsn1C(O)C(Cl)(Cl)Cl` (stereo unspecified), for which the melting point fell in the range of 117 to 118 °C.
The molecule `C=C(C)C(=O)NCc1ccc(S(=O)(=O)ON=C2c3ccccc3-c3ccccc32)cc1` came in with a melting point of 187 to 188 °C.
Take `CC(=O)NCCn1ccc2c1-c1c(Cl)cccc1CC2`: the melting point lay in the range of 146 to 147 °C.
In the case of `CCOC(=O)N1CCC2(CC1)Oc1ccccc1C2n1cccc1` (stereo unspecified) it was 132 to 133 °C; in that of `Nc1nc(C(F)(F)F)c(CN2C(=O)C3(COc4cc5c(cc43)OCO5)c3ccccc32)s1` (stereo unspecified), 165 to 167 °C; in that of `O=C(CCl)NC(=O)Nc1cc(C(F)(F)F)cc(C(F)(F)F)c1`, 170 °C.
The same measure for `CC(C)(C)[Si](ON1C(=O)c2ccccc2C1=O)(c1ccccc1)c1ccccc1`: 138 to 143 °C.
For the molecule `CC(=O)Nc1nc2ccc(S(=O)(=O)n3c(COC(C)C(=O)O)cc4nc(Cl)ccc43)cc2s1` (stereo unspecified), the melting point is 257 to 260 °C.
In the case of `Cc1cccc(C(=O)NC(Nc2c(Nc3cccnc3Cl)c(=O)c2=O)C(C)(C)Cc2ccccc2)c1` (stereo unspecified) it was 234 to 235 °C; in that of `O=C1c2cc3ccc4c(c3c(-c3ccncc3)c2C[NH+]1[O-])OCO4` (stereo unspecified), 270 to 274 °C.
In the case of `CC(=O)C(CCCCCCc1ccc(O)cc1)C(C)=O` it was 68 to 69 °C.
As for `CC(=O)c1ccc(-c2ccc(Br)cc2)c(Br)c1`, the melting point lay in the range of 82.5 to 84.5 °C.
Consider `COC(=O)CCCC(=O)NS(=O)(=O)c1ccc(N)cc1`, for which the melting point was > 260 °C.
As to `COc1ccccc1NC(=O)Nc1nc(Oc2ccc3ccccc3c2)nc(N2Cc3ccccc3CC2C(=O)O)n1` (stereo unspecified), the melting point was 230 to 235 °C.
On to `O=C(Nc1cc2ncc(CN3CCCC3)cc2cc1F)c1ccc(-c2ccc(C(F)(F)F)cc2)cc1`, for which the melting point fell in the range of 209 to 212 °C.
In turn, `Cc1cc(SCc2sc(-c3ccc(C(F)(F)F)cc3)nc2C)c2c(c1OCC(=O)O)CCC2` had a melting point of 184 °C.
`CC(COc1ccc(CC2SC(=O)N(C(c3ccccc3)(c3ccccc3)c3ccccc3)C2=O)cc1)NC(=O)OC(C)(C)C` (stereo unspecified) had a melting point of 153 to 157 °C.
In turn, `CC(=O)C(=Cc1ccc([N+](=O)[O-])o1)C(C)=O` displayed a melting point of 117 to 120 °C.
In the case of `CC(C)c1cc(S(=O)(=O)Cl)c(C(C)C)cc1Br` it was 80.5 to 83 °C; in that of `CNC(=S)C1(c2ccccc2)CCCCC1=O` (stereo unspecified), 86 °C; in that of `CCOC(=O)Cc1ccc(NC(=O)C(COc2ccc(Cl)cc2)NS(=O)(=O)c2ccc(Br)cc2)cc1` (racemic), 154 to 156 °C.
As for `Cn1cncc1C(O)(c1ccc(Cl)cc1)c1ccc2c(c1)C(c1cccc(Cl)c1)=NCc1nnnn1-2` (stereo unspecified), the melting point came to 240 °C.
Molecule `CCOP(=O)(CC(=O)Nc1c(C(C)C)cccc1C(C)C)c1ccccc1` (stereo unspecified) displayed a melting point of 170 to 173 °C.
`CCCCC(CC)Cn1c2cc(Br)ccc2c2ccc(Br)cc21` (stereo unspecified) displayed a melting point of 95 to 97 °C.
Consider `CC(C)C(=O)NS(=O)(=O)c1cccc(N)c1`, for which the melting point was in the range of 110 to 112 °C.
In the case of `O=C(NCCN1CCOCC1)Nc1nc2ccc(OC(c3c(Cl)cccc3Cl)C(F)(F)F)cc2s1` (stereo unspecified), the melting point lay within 150 to 160 °C.
With `CCOC(=O)C=Cc1ccc(Cl)cc1NS(=O)(=O)c1ccc(C)cc1`, the melting point lay within 124 to 127 °C.
Take `O=C(Nc1ccccc1S(=O)(=O)c1ccccc1)N[C@@H](Cc1ccc(OC(=O)c2c(Cl)cncc2Cl)cc1)C(=O)O`: the melting point was 186 °C.
For the molecule `O=C(O)C1CCCc2cc(C3CCCCC3)c(Cl)cc21` (stereo unspecified), the melting point was 119 to 120 °C.
`Cc1ccccc1-c1cn2ccc3ccccc3c2n1` returned a melting point of 93 °C.
Molecule `C[C@@H]1N=C(c2ccccc2Cl)c2ccsc2NC1=O` registered a melting point of 200 °C.
In the case of `Cc1cc(Cl)ccc1OCC(=O)N1Cc2ccc(C(=O)NCc3cccnc3)n2Cc2ccccc21` it was 168 °C; in that of `O=C(CC1CCCCC1)Nc1ccc2oc3c(c2c1)CCCCCC3`, 180 to 181 °C.
The molecule `CSC(=S)c1cccc([N+](=O)[O-])c1` came in with a melting point of 38 °C.
As for `C=CC(=O)NC1=NN(c2c(Cl)cc(Cl)cc2Cl)C(=O)C1c1cc[nH]n1` (stereo unspecified), the melting point lay in the range of 151 to 154 °C.
For the molecule `COc1cc2c(c(C(C)C)c1OC)CC(C)C(Br)=C2` (stereo unspecified), the melting point lay within 71 to 72 °C.
In the case of `CCOc1cc(CCCC2OC(=O)NC2=O)ccc1OCc1nc(-c2ccccc2)oc1C` (stereo unspecified) it was 129 to 130 °C; in that of `CC(=O)NC[C@H]1CN(c2ccc(N3CCC4(CC3)COCO4)cc2)C(=O)O1`, 134 to 138 °C.
As for `CC1=Nc2c(C)nn(C)c2C2=NC(C)CN12` (stereo unspecified), the melting point was 169 to 172 °C.
On to `CC1(C)C(=O)N(c2ccc(C#N)c(C(F)(F)F)c2)C(=O)N1CCCCCN1C(=O)N(c2ccc(C#N)c(C(F)(F)F)c2)C(=O)C1(C)C`, for which the melting point lay in the range of 167 to 169 °C.
`CC(C)NCC(O)COc1ccc(NC(=O)N(C)C)cc1` (stereo unspecified) yielded a melting point of 138 to 139 °C.
Take `CCOC(=O)c1ncn2c1CN(C)C(=O)c1c(Br)cccc1-2`: the melting point lay within 214 to 215 °C.
`Nc1ccc2c(c1)NC(=O)C(CCCN1CCN(c3ccc(F)cc3)CC1)O2` (stereo unspecified): the melting point fell in the range of 158 to 159 °C.
The same measure for `CCCCCCCCCCCCCCOc1cccc(CC(=O)Nc2ccccc2CO)c1`: 100 to 103 °C; for `COc1cc(OC)nc(Oc2ccc3ccccc3c2C=O)n1`: 123 to 125 °C.
On to `Cc1ccc(Cn2c(NC3CCN(CC(O)COc4ccccc4)CC3)nc3ccccc32)o1` (stereo unspecified), for which the melting point was determined as 165 °C.
For the molecule `CCCCn1c(=O)c(C(=O)OCC)c(N2CCN(C(=O)c3cccs3)CC2)c2cccnc21`, the melting point lay in the range of 90 to 96 °C.
`CN(C)CCC1CSc2c(C(=O)O)c(=O)c3cc(F)c(N4CCN(C)CC4)cc3n21` (stereo unspecified) came in with a melting point of 221 to 223 °C.
As for `O=C(NN=C(c1ccc(Cl)cc1)c1ccc(OC(F)(F)C(Cl)Cl)cc1)OCC(Cl)(Cl)Cl`, the melting point was 97 to 103 °C.
On to `Nc1ccc(-c2noc(-c3cnn4c(C(F)(F)F)cc(-c5ccc(Cl)c(Cl)c5)nc34)n2)cn1`, for which the melting point was found to be 289 °C.
`CCOC(=O)C(=CN(C)C)C(=O)Nc1ccc(Br)cc1C` gave a melting point of 88 to 90 °C.
In the case of `COc1cc(C)c(C(=O)c2c(C)cccc2OC)c(OC)c1OC` it was 84 °C.
In the case of `CN1CCN(c2nc3c(cc2F)c(=O)c(C(=O)O)cn3C2CSC2)CC1`, the melting point lay within 270 to 280 °C.
Take `NCc1c(-c2ccc(Oc3ccccc3)cc2)c2c(N)ncnc2n1C1CCCC1`: the melting point was in the range of 196 to 198 °C.
On to `Cc1c(F)cc(C(=O)OC(C)(C)C)cc1I`, for which the melting point was 77 to 80 °C.
In the case of `Cc1nn(-c2ccccn2)cc1CO` it was 116 to 117 °C; in that of `CNc1nc(NC)c2ncn(COC(COC(=O)C(C)C)COC(=O)C(C)C)c2n1`, 122 to 123 °C.
The molecule `Nc1cccc(S(=O)(=O)NCC(F)(F)F)c1` displayed a melting point of 131 °C.
As for `CCCCCCCCCCOc1ccc(-c2ccc(C#CCCC(C)OC)cc2)cc1` (stereo unspecified), the melting point fell in the range of 97 to 99 °C.
